Where a SMILES comes first, the peptide text is derived from it. [ ]: non-standard residue; d: D form. Nleu = CC(C)CNCC(=O)O; Nlys = NCCCCNCC(=O)O
Experiments:
[1] = system: P. aeruginosa PAO1; experiment: NPN outer membrane permeability assay; assay type: cell-based, Pseudomonas aeruginosa
Method: (§1) Figure 5 Interactions of peptide–peptoid hybrids with bacterial outer and inner membranes of P. aeruginosa. (a, b) NPN outer membrane permeability assay. P. aeruginosa PAO1 bacteria were treated with increasing compound concentrations in the presence of 10 μM NPN. The fluorescence intensity (λex = 340 nm, λem = 415 nm) was measured within 5 min. Data represent the mean ± SD, n = 3. (c, d) DiSC3(5) inner membrane depolarization assay. P. aeruginosa PAO1 cells were treated with increasing compound concentrations in the presence of 2 μM DiSC3(5). The fluorescence intensity (λex = 610 nm, λem = 660 nm) was measured within 5 min after treatment, and the data represent mean ± SD, n = 3.
A single colony of P. aeruginosa PAO1 and E. coli W3110 was grown overnight while being shaken (150 rpm) in LB-broth (5 mL) at 37 °C. 100 μL of the overnight culture was regrown in 10 mL of LB broth with shaking (200 rpm) to the exponential phase (OD600 = 1, corresponding to 10^9 CFU/mL). Bacteria were washed three times with HEPES buffer (5 mM HEPES, 5 mM glucose, pH 7.4), but not diluted yet to their final concentration. 200 μL of peptide samples was added to the first well of 96-well plates (black wells, flat bottom, BRAND GmbH Wertheim, Germany), 100 μL of HEPES/glucose buffer with 10 μM N-phenyl-1-naphthylamine (NPN, purchased from Acros Organics) was added in all the wells, and the compounds were diluted serially by 1/2 (add a control with a final volume of 200 μL with 10 μM NPN in buffer only). Ca. 10 min before the measurement and the final dilution of the bacteria, the plates and the 10 μM NPN in HEPES/glucose buffer (for bacteria dilution) were incubated at 37 °C (prior to the dilution of the bacteria with buffer containing NPN 10 μM). Later, the bacteria were diluted to OD600 = 0.5 with the NPN in HEPES/glucose buffer. 100 μL of the bacterial suspension was added to each well. In this case, the final OD of bacteria was 0.25, the final concentration of the desired compound 64 μg/mL, and NPN 10 μM. The control wells are buffer containing NPN (10 μM, 200 μL) and bacterial suspension containing NPN in HEPES buffer. The plate was measured with a Tecan instrument Infinite M1000 within 5 min. The plate was enabled to shake for 5 s before measurement. The excitation wavelength used was 340 ± 5 nm, and emission wavelength was 415 ± 5 nm. The assay was repeated at least three times.

[2] = system: E. coli W3110; experiment: DiSC3(5) inner membrane depolarization assay; assay type: cell-based, Escherichia coli; details: E. coli W3110, 2 μM DiSC3(5)
Method: as §1, with “Figure 4” for “Figure 5”, “of E. coli.” for “of P. aeruginosa.”, “assay. E. coli W3110” for “assay. P. aeruginosa PAO1”, “represent” for “represent the”, “assay. E. coli W3110 bacteria” for “assay. P. aeruginosa PAO1 cells”
(§2) A single colony of P. aeruginosa PAO1 and E. coli W3110 was grown overnight with shaking (150 rpm) in LB broth (5 mL) at 37 °C. A 100 μL portion of the overnight culture was regrown in 10 mL of LB broth with shaking (200 rpm) to the exponential phase (OD600 = 1, corresponding to 10^9 CFU/mL). Bacteria were washed once with HEPES buffer (5 mM HEPES, 5 mM glucose, pH 7.4) and diluted to an OD600 = 0.5. Stock solution of 10 mM of 3,3′-dipropylthiadicarbocyanine iodide (DiSC3(5), purchased from Sigma) was prepared in DMSO. Stock solutions of 2 mg/mL of the compounds were prepared in sterilized milli-Q water and diluted to the beginning concentration of 128 μg/mL in 200 μL of HEPES buffer containing 4 μM of the fluorescent probe DiSC3(5). The diluted samples were added to the first well of 96-well plates (black wells, flat bottom, BRAND GmbH Wertheim, Germany) and diluted serially by 1/2. 100 μL of the bacterial suspension in HEPES buffer (without fluorophore) was added to each well. In this case, the final OD of bacteria was 0.25, the final concentration of peptide in the first column was 64 μg/mL, and DiSC3(5) was 2 μM. The control wells are buffer containing DiSC3(5) and bacterial suspension containing DiSC3(5) in HEPES buffer. The plate was measured with a Tecan instrument Infinite M1000 within 5 min. […] The assay was measured in triplicate and repeated at least two times.[65],[75]

[3] = system: P. aeruginosa PAO1; experiment: DiSC3(5) inner membrane depolarization assay; assay type: cell-based, Pseudomonas aeruginosa; details: P. aeruginosa PAO1, 2 μM DiSC3(5)
Method: as §1, §2

[4] = system: A549 cells; experiment: Cell viability assay by Alamar blue; assay type: cell-based; details: CSV; read-out: Toxicity on A549 lung cancern cells
Method: The data are represented as the mean value ± SD, n = 3. […] (c) Vesicle leakage assay for a selection of compounds. Lipid vesicles made of EYPG or EYPC were suspended in a buffer (10 mM TRIS, 107 mM NaCl, pH 7.4). After 45 s, the indicated compound was added to reach the desired concentration. After 240 s, 30 μL of 1.2% TritonX-100 was added for full fluorescein release. […] See Supporting Information for the full curves, all of the data, and procedures.
HEK293 cells were cultured and maintained in DMEM high glucose (Dulbecco’s modified Eagle medium, Sigma Aldrich) medium supplemented with 10% FBS (Sigma Aldrich) and 1% penicillin/streptomycin. A549 cells were cultured and maintained in RPMI-1640 medium (Sigma Aldrich), supplemented with 10% FBS (Sigma Aldrich) and 1% penicillin/streptomycin. The cells were handled and subcultured according to the manufacturer instructions. Cells were incubated in a humidified incubator at 37 °C in the presence of 5% CO2.
Assays on HEK293, A549 cells were performed as described earlier.[74] […]

| Compound | Outer membrane permeabilization (NPN) ([1]; not told) | Inner membrane depolarization (DiSC3(5)) [2] | Inner membrane depolarization (DiSC3(5)) [3] | IC50 [4] | Outer membrane permeabilization (NPN) ([1]; P. aeruginosa PAO1, 10 μM NPN) |
| --- | --- | --- | --- | --- | --- |
| CC(C)C[C@H](NC(=O)CN(CC(C)C)C(=O)[C@H](CC(C)C)NC(=O)CN(CCCCN)C(=O)[C@H](CC(C)C)NC(=O)CN(CC(C)C)C(=O)[C@H](CCCCN)NC(=O)CN(CC(C)C)C(=O)[C@H](CC(C)C)NC(=O)CN(CCCCN)C(=O)[C@@H](N)CCCCN)C(N)=O [EB9, KkLlKlLkLlL] (H-K[Nlys]L[Nleu]K[Nleu]L[Nlys]L[Nleu]L-NH2) | significant outer membrane permeabilization | partly depolarized the inner membrane | partly depolarized the inner membrane | – | – |
| H-KKLLKLLKLLL-NH2 [ln65, reference compound] | – | – | – | 20 ± 1 µM | – |
| CC(C)C[C@H](NC(=O)[C@H](CCCCN)NC(=O)CNCCCCN)C(=O)N[C@@H](CC(C)C)C(=O)N[C@@H](CCCCN)C(=O)N[C@@H](CC(C)C)C(=O)N[C@@H](CC(C)C)C(=O)N[C@@H](CCCCN)C(=O)N[C@@H](CC(C)C)C(=O)N[C@@H](CC(C)C)C(=O)N(CC(N)=O)CC(C)C [EB1] (H-[Nlys]KLLKLLKLL[Nleu]-NH2; N-terminus assumed) | – | – | – | 69 ± 2 µM | – |
| CC(C)C[C@H](NC(=O)[C@H](CC(C)C)NC(=O)[C@H](CC(C)C)NC(=O)[C@H](CCCCN)NC(=O)[C@H](CC(C)C)NC(=O)[C@H](CC(C)C)NC(=O)CN(CCCCN)C(=O)CN(CC(C)C)C(=O)CN(CC(C)C)C(=O)CN(CCCCN)C(=O)CNCCCCN)C(N)=O [EB5, kkllkLLKLLL] (H-[Nlys][Nlys][Nleu][Nleu][Nlys]LLKLLL-NH2) | permeabilized the outer membrane | – | – | – | – |
| CC(C)C[C@H](NC(=O)[C@H](CC(C)C)NC(=O)[C@H](CC(C)C)NC(=O)[C@H](CCCCN)NC(=O)[C@H](CC(C)C)NC(=O)[C@H](CC(C)C)NC(=O)CN(CCCCN)C(=O)[C@H](CC(C)C)NC(=O)[C@H](CC(C)C)NC(=O)CN(CCCCN)C(=O)CNCCCCN)C(N)=O [EB6, kkLLkLLKLLL] (H-[Nlys][Nlys]LL[Nlys]LLKLLL-NH2) | permeabilized the outer membrane | strongly depolarized the inner membrane | strongly depolarized the inner membrane | 19 ± 1 µM | – |
| CC(C)C[C@H](NC(=O)[C@H](CC(C)C)NC(=O)[C@H](CC(C)C)NC(=O)[C@@H](CCCCN)NC(=O)[C@H](CC(C)C)NC(=O)[C@H](CC(C)C)NC(=O)[C@@H](CCCCN)NC(=O)[C@H](CC(C)C)NC(=O)[C@H](CC(C)C)NC(=O)[C@@H](CCCCN)NC(=O)[C@H](N)CCCCN)C(N)=O [ln69, kkLLkLLkLLL, reference compound] (H-[dK][dK]LL[dK]LL[dK]LLL-NH2) | – | – | – | 21 ± 3 µM | – |
| CC(C)CN(CC(N)=O)C(=O)CN(CC(C)C)C(=O)CN(CC(C)C)C(=O)CN(CCCCN)C(=O)CN(CC(C)C)C(=O)CN(CC(C)C)C(=O)CN(CCCCN)C(=O)CN(CC(C)C)C(=O)CN(CC(C)C)C(=O)CN(CCCCN)C(=O)CNCCCCN [EB11, kkllkllklll] (H-[Nlys][Nlys][Nleu][Nleu][Nlys][Nleu][Nleu][Nlys][Nleu][Nleu][Nleu]-NH2) | – | partly depolarized the inner membrane | partly depolarized the inner membrane | – | significant outer membrane permeabilization |

From publication PMC10714400, “Antimicrobial Peptide–Peptoid Hybrids with and without Membrane Disruption” (ACS Infectious Diseases, 2023)
